{
  "source": "patent US20140157443A1",
  "about": "“METHODS AND COMPOSITIONS FOR DETECTING AND MODULATING A NOVEL MTOR COMPLEX” (ST. JUDE CHILDREN'S RESEARCH HOSPITAL, priority 2011, published 2014)",
  "molecules": {"B1": {"name": "TEL2 (translocation Ets leukemia 2 / Ets variant gene 7) (other)", "chain": "MQEGELAISPISPVAAMPPLGTHVQARCEAQINLLGEGGICKLPGRLRIQPALWSREDVLHWLRWAEQEYSLPCTAEHGFEMNGRALCILTKDDFRHRAPSSGDVLYELLQYIKTQRRALVCGPFFGGIFRLKTPTQHSPVPPEEVTGPSQMDTRRGHLLQPPDPGLTSNFGHLDDPGLARWTPGKEESLNLCHCAELGCRTQGVCSFPAMPQAPIDGRIADCRLLWDYVYQLLLDTRYEPYIKWEDKDAKIFRVVDPNGLARLWGNHKNRVNMTYEKMSRALRHYYKLNIIKKEPGQKLLFRFLKTPGKMVQDKHSHLEPLESQEQDRIEFKDKRPEISP", "notes": "Endogenous in the human cell lines and xenografts; Exogenous (MSCV-TEL2-IRES-GFP) in mouse Arf-/- pre-B cells; Purified from transfected HEK 293T cells for the in vitro association; also called TEL2/ETV7; ETV7"}},
  "key": {"mTORC3": {"molecular_target": "T1, mTORC3 (Homo sapiens, UniProt P42345)", "T1 construct": "endogenous TEL2-expressing Karpas-299 cell lysates immunoprecipitated with mTOR (mTOR IP) or TEL2 (TEL2-IP) antibodies; endogenous in cells; host or cells: Karpas-299", "assay": "IP-kinase assay, TEL2 IP (mTORC3 alone) with recombinant 4E-BP1", "assay_type": "biochemical", "details": "Karpas-299 TEL2 IP, recombinant 4E-BP1, γ32P-ATP; FKBP12/Rapamycin 37 μg/ml/20 μM; OSI-27 10 μM", "procedure": "(§1) IgG indicates the immunoprecipitation with non-relevant IgG.\n(§2) To determine the relative amounts of mTORC 1, 2 and 3, whole cell lysates of Karpas-299 cells were immunoprecipitated with non-relevant IgG, anti-mTOR, anti-TEL2, anti-Raptor, or anti-Rictor antibodies and the IPs were used for western blotting and in vitro kinase assays. […] For in vitro kinase assays, the IPs were incubated with recombinant 4E-BP1 or AKT in the presence of ATP.\n(§3) Captured antibody-protein complexes were incubated with recombinant 4E-BP1 (Abcam) or AKT/PKB (Millipore) in the presence of (γ^32P-) ATP."}, "mTOR": {"molecular_target": "T2, mTOR (Homo sapiens, UniProt P42345)", "T2 construct": "endogenous TEL2-expressing Karpas-299 cell lysates immunoprecipitated with mTOR (mTOR IP) or TEL2 (TEL2-IP) antibodies; endogenous in cells; host or cells: Karpas-299", "assay": "IP-kinase assay, mTOR IP (mTORC1+mTORC2+mTORC3) with recombinant 4E-BP1", "assay_type": "biochemical", "details": "Karpas-299 mTOR IP, recombinant 4E-BP1, γ32P-ATP; FKBP12/Rapamycin 37 μg/ml/20 μM; OSI-27 10 μM", "procedure": "as §1, §2, §3"}, "Karpas-299 cells": {"tested_on": "Karpas-299 cells", "assay": "mTOR inhibition: proliferation of Karpas-299 cells over three population doublings", "assay_type": "cell-based, human", "details": "0.1 to 10,000 ng/ml", "procedure": "FIG. 5A provides a graph presenting cell density as a percent control of Karpas-299 cells. […] Cell densities were plotted as the percentage of cells treated with vehicle. […] Cell densities were plotted as the percentage of cells treated with vehicle.\n(§4) Cells were plated in drug containing growth medium and followed for three population doublings."}, "[1]": {"tested_on": "mTOR signaling in Karpas-299 cells", "assay": "Immunoblots of mTOR target phosphorylation, Ki-67 and LC3B in treated Karpas-299 cells", "assay_type": "cell-based, human", "procedure": "(§5) FIG. 5A provides a graph presenting cell density as a percent control of Karpas-299 cells. Logarithmically growing Karpas-299 cells were treated for three population doublings with increasing amounts (0.1, 0.3, 1, 3, 10, 30, 100, 300, 1000, 3000, 10,000 ng/ml) of Rapamycin, AZD-8055 or OSI-27. Cell densities were plotted as the percentage of cells treated with vehicle. FIG. 5B provides a graph presenting cell density as a percent control of mouse pre-B cells transduced with MSCV-IRES-GFP (vector) or MSCV-TEL2-IRES-GFP (TEL2) and treated with AZD-8055 or Rapamycin. Cell densities were plotted as the percentage of cells treated with vehicle. […] FIG. 5D provides immunoblots of the same Rapamycin-treated fractions of FIG. 5C probed for the presence of p-mTOR^Ser2448, p-AKT^Ser473, p-AKT^Thr308, p-P70S6K^Thr389, p-S6^Ser235/236, p-4E-BP1^Thr37/46 and for the autophagosome marker LC3B I/II.\n(§6) For western blot analysis, cells were lysed in 1× lysis buffer (Cell Signaling Technologies). For co-IP experiments, cells were lysed in CHAPS lysis buffer and xenografts in 1× cell signaling lysis buffer. Co-IP was performed with 2 μg antibody whilst rotating at 4° C."}, "[2]": {"tested_on": "vector-transduced Arf−/− pre-B cells", "assay": "mTOR inhibition: proliferation of vector-transduced pre-B cells", "assay_type": "cell-based, mouse", "procedure": "(§7) FIG. 5A provides a graph presenting cell density as a percent control of Karpas-299 cells. Logarithmically growing Karpas-299 cells were treated for three population doublings with increasing amounts (0.1, 0.3, 1, 3, 10, 30, 100, 300, 1000, 3000, 10,000 ng/ml) of Rapamycin, AZD-8055 or OSI-27. Cell densities were plotted as the percentage of cells treated with vehicle. FIG. 5B provides a graph presenting cell density as a percent control of mouse pre-B cells transduced with MSCV-IRES-GFP (vector) or MSCV-TEL2-IRES-GFP (TEL2) and treated with AZD-8055 or Rapamycin. Cell densities were plotted as the percentage of cells treated with vehicle. FIG. 5C provides m-TOR IP/immunoblots of lysates of the Rapamycin-treated Karpas-299 cells probed for the presence of Rictor, mSIN1, mLST8 and TEL2. FIG. 5D provides immunoblots of the same Rapamycin-treated fractions of FIG. 5C probed for the presence of p-mTOR^Ser2448, p-AKT^Ser473, p-AKT^Thr308, p-P70S6K^Thr389, p-S6^Ser235/236, p-4E-BP1^Thr37/46 and for the autophagosome marker LC3B I/II.\nTo determine if mTORC3 is also insensitive to Rapamycin inhibition in vivo, Karpas-299 cells were treated with increasing amounts of drug for three population doublings. […] This was deduced from the steady relative intensities of LC3BI/II proteins at all Rapamycin concentrations (FIG. 5D). […]"}, "[3]": {"tested_on": "TEL2-expressing primary Arf−/− mouse pre-B cells", "assay": "mTOR inhibition: proliferation of TEL2-expressing pre-B cells", "assay_type": "cell-based", "procedure": "as §5, §4"}, "[4]": {"tested_on": "mTOR signaling in TEL2-expressing Arf−/− mouse pre-B cells", "assay": "Immunoblots of mTOR target phosphorylation, KI-67 and LC3B in AZD-8055-treated TEL2-expressing pre-B cells", "assay_type": "cell-based", "procedure": "as §7\nAt 100 ng/ml AZD-8055, the autophagy salvage pathway was activated as detected by the change in the relative amounts of the LC3BI/II proteins.\nas §6"}, "[5]": {"molecular_target": "T3, Raptor (human cell lines) (human, UniProt Q8N122 1-1335)", "T3 construct": "mTORC1 component", "assay": "TEL2 IP / western blot, whole cell lysates of Karpas-299, K562 and OS-17 cells (FIG. 2B)", "procedure": "as §6"}, "SIN1 (human cell lines)": {"molecular_target": "T4, SIN1 (human cell lines) (human, UniProt Q9BPZ7 2-522, limits assumed)", "T4 construct": "mTORC2 component; also called mSIN1", "T4 sequence (Q9BPZ7 2-522 limits assumed)": "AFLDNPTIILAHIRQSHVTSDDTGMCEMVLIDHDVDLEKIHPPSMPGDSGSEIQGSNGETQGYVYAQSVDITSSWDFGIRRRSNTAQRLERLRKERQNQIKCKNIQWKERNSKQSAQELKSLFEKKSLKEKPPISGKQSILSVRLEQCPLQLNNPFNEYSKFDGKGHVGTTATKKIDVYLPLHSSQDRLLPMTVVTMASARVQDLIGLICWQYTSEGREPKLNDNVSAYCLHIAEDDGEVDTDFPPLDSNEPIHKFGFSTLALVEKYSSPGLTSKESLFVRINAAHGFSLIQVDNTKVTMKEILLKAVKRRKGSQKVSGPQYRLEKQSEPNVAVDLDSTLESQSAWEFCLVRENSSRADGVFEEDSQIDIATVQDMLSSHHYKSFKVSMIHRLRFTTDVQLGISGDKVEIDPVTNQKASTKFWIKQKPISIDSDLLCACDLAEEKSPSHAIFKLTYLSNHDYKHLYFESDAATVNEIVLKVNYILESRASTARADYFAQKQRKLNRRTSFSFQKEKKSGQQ", "assay": "TEL2 IP / western blot, whole cell lysates of Karpas-299, K562 and OS-17 cells (FIG. 2B)", "procedure": "as §6"}, "[6]": {"molecular_target": "T5, RUVBL2 (bacterially-expressed, purified recombinant) (UniProt Q9Y230 1-463, limits assumed)", "T5 construct": "Used as a specificity control, a protein not part of mTORC3", "T5 sequence (Q9Y230 whole entry)": "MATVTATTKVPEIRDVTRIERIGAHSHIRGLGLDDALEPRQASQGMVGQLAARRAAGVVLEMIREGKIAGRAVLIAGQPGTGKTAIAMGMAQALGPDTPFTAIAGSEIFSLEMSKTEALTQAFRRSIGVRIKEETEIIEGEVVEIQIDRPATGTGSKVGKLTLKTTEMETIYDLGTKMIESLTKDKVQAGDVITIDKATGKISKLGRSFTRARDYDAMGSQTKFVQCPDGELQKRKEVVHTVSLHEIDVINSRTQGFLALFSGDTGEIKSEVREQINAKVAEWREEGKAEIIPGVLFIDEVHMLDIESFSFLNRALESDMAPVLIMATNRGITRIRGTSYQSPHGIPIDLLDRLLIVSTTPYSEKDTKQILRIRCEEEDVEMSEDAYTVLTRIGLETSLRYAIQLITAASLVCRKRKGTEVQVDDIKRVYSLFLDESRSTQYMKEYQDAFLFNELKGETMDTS", "assay": "purified proteins co-incubated for 8 or 24 hours, TEL2 IP, western blot for RUVBL2 (FIG. 2C)"}, "[7]": {"molecular_target": "Rictor of mouse Arf-/- pre-B cells (mouse, UniProt Q6QI06 1-1708)", "sequence (Q6QI06 whole entry)": "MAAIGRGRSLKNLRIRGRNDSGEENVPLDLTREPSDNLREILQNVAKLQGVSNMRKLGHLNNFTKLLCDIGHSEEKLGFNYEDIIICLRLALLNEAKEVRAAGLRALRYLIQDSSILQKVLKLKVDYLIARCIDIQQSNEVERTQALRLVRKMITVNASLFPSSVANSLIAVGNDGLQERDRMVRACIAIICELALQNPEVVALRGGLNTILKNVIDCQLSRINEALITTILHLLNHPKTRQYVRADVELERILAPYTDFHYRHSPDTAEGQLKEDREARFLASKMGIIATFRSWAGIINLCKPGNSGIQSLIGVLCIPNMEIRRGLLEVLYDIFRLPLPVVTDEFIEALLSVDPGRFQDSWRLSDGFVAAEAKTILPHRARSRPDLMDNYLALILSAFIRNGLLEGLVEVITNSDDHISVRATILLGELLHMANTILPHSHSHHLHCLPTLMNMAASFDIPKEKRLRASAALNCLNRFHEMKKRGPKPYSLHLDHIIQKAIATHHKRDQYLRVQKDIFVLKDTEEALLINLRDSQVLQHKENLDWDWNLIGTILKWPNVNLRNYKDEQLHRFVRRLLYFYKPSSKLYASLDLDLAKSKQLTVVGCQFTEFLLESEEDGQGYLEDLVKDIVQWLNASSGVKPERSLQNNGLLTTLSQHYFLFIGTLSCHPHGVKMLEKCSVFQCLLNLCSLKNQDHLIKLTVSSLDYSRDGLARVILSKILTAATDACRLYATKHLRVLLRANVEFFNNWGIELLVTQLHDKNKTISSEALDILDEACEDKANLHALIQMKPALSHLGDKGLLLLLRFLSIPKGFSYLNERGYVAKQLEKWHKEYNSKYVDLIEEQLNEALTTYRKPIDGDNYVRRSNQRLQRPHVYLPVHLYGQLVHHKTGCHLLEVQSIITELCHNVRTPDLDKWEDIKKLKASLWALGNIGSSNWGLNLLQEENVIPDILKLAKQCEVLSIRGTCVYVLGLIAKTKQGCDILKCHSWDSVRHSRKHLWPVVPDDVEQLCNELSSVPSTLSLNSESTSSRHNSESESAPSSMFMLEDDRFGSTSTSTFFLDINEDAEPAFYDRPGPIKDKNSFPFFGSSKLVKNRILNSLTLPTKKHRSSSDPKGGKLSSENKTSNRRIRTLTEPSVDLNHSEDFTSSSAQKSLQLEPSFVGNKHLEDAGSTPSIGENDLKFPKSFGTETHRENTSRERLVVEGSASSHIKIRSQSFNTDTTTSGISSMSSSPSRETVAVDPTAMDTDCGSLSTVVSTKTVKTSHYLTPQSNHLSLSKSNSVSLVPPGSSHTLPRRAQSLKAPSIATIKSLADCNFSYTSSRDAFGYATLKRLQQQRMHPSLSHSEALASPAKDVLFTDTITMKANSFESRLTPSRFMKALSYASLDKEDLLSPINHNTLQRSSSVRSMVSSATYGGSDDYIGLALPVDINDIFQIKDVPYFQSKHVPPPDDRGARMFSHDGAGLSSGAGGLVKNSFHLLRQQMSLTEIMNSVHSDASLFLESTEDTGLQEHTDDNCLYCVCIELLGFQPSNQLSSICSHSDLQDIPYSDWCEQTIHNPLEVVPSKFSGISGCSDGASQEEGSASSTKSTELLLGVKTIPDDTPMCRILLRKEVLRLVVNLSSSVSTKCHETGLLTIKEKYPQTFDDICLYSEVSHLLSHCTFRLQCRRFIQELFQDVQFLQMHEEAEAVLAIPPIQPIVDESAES", "assay": "TEL2 IP / western blot, whole cell lysates of mouse Arf-/- pre-B cells expressing TEL2 (FIG. 2A)", "procedure": "as §6"}, "[8]": {"molecular_target": "T6, SIN1 of mouse Arf-/- pre-B cells (mouse, UniProt Q8BKH7 2-522, limits assumed)", "T6 construct": "also called mSIN1", "T6 sequence (Q8BKH7 2-522 limits assumed)": "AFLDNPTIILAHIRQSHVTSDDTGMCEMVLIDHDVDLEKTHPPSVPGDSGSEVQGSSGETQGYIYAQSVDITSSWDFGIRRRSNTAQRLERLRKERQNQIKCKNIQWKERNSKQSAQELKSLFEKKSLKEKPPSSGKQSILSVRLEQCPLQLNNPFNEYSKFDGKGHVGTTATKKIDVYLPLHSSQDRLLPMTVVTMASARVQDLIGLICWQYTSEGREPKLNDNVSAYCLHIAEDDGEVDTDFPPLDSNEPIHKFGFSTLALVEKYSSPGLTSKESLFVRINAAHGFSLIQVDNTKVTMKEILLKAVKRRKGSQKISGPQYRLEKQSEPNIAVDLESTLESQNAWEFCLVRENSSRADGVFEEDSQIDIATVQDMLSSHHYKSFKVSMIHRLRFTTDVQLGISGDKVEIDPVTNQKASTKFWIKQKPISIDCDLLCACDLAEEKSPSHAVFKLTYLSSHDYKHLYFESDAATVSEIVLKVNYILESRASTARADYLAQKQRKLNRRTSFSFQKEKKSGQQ", "assay": "TEL2 IP / western blot, whole cell lysates of mouse Arf-/- pre-B cells expressing TEL2 (FIG. 2A)", "procedure": "as §6"}, "[9]": {"molecular_target": "T7, Rictor (human cell lines) (human, UniProt Q6R327 1-1708)", "T7 construct": "mTORC2 component", "T7 sequence (Q6R327 whole entry)": "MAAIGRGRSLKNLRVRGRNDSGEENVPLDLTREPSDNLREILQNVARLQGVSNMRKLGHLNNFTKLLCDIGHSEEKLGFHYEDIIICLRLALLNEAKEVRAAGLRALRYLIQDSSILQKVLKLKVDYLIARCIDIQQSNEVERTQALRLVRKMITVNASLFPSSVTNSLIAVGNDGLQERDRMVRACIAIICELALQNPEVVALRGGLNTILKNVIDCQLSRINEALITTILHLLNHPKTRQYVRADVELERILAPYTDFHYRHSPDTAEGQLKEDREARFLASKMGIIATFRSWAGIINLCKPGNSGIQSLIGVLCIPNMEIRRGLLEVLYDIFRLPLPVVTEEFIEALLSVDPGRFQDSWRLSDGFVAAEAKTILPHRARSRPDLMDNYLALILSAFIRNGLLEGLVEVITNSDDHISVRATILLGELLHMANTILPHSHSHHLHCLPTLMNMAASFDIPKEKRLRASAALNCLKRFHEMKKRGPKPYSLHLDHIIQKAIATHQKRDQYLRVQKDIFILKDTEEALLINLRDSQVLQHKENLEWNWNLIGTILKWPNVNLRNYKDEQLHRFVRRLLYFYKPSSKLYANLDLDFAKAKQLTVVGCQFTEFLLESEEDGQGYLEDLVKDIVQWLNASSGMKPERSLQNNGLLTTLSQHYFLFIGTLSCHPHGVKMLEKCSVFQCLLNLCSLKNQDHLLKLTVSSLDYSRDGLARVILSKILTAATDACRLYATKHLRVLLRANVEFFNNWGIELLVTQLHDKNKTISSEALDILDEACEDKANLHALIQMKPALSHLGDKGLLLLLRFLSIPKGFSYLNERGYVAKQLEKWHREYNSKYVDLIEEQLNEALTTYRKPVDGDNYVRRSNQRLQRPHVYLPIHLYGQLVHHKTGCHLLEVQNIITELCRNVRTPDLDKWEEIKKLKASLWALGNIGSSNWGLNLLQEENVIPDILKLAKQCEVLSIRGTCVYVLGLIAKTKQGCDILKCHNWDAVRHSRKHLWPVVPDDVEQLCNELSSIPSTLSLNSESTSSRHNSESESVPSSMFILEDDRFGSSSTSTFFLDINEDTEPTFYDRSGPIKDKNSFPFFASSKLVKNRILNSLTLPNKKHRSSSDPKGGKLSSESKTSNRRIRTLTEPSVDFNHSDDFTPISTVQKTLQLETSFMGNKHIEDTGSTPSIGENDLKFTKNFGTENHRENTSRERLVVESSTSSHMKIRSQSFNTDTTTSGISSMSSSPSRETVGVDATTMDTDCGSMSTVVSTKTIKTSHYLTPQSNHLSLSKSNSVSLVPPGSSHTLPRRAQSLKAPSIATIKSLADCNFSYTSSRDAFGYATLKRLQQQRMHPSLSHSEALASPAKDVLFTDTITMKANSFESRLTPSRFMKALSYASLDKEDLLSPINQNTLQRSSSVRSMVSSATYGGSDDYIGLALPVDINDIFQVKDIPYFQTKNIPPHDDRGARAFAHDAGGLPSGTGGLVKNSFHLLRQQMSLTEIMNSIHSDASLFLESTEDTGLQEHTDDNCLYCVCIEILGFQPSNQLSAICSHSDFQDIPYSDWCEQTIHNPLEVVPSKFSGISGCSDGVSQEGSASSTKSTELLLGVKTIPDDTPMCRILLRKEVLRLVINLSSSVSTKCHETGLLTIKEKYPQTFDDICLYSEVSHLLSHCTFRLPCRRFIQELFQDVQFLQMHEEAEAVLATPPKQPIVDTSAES", "assay": "TEL2 IP / western blot of cytoplasmic, membrane and nuclear fractions of Karpas-299 cells (FIG. 3A)", "procedure": "Nuclear, cytoplasmic and membrane fractions of Karpas-299 cells were subjected to IP-Western blotting to determine the cellular location of mTORC3.\nas §6"}},
  "note": "Entries after “also recorded” stand apart in the source; their conditions may differ.",
  "data": [
    {"molecule": "COc1cccc2cc(-c3nc([C@H]4CC[C@H](C(=O)O)CC4)n4ncnc(N)c34)[nH]c12", "note": "[OSI-27]", "values": [
      {"measurement": "4E-BP1 phosphorylation (kinase activity) by TEL2 IP", "setting": "mTORC3", "value": "reduced 4E-BP1 phosphorylation to levels comparable with IPs using control IgG"},
      {"measurement": "4E-BP1 phosphorylation (kinase activity) by mTOR IP", "setting": "mTOR", "value": "reduced 4E-BP1 phosphorylation to levels comparable with IPs using control IgG"},
      {"measurement": "Proliferation of Karpas-299 cells", "setting": "Karpas-299 cells", "value": "completely inhibited proliferation"},
      {"measurement": "mTORC3 signaling / kinase activity in cultured cells", "setting": "[1]", "value": "sensitive; also recorded: fully inhibited"}
    ]},
    {"molecule": "CO[C@H]1C[C@@H]2CC[C@@H](C)[C@@](O)(O2)C(=O)C(=O)N2CCCC[C@H]2C(=O)O[C@H]([C@H](C)C[C@@H]2CC[C@@H](O)[C@H](OC)C2)CC(=O)[C@H](C)/C=C(\\C)[C@@H](O)[C@@H](OC)C(=O)[C@H](C)C[C@H](C)/C=C/C=C/C=C/1C", "note": "[Rapamycin]", "values": [
      {"measurement": "Drug concentration at which cells stopped proliferating", "setting": "[2]", "value": "> 0.3", "unit": "ng/mL"},
      {"measurement": "Concentration causing marked reduction of p-AKT Ser473 phosphorylation", "setting": "[1]; Karpas-299", "value": "> 0.3", "unit": "ng/mL"}
    ]},
    {"molecule": "COc1ccc(-c2ccc3c(N4CCOC[C@@H]4C)nc(N4CCOC[C@@H]4C)nc3n2)cc1CO", "note": "[AZD-8055]", "values": [
      {"measurement": "Proliferation of Karpas-299 cells", "setting": "Karpas-299 cells", "value": "completely inhibited proliferation"},
      {"measurement": "Drug concentration that completely inhibited proliferation", "setting": "[3]", "value": "> 100", "unit": "ng/mL"},
      {"measurement": "Concentration giving complete loss of 4E-BP1 Thr37/46, P70S6K Thr389 and AKT Ser473 phosphorylation, coinciding with loss of cell proliferation", "setting": "[1]; Karpas-299", "value": 100, "unit": "ng/mL"},
      {"measurement": "Phosphorylation of AKT Thr308", "setting": "[1]; Karpas-299", "value": "remained stable"},
      {"measurement": "Autophagy salvage pathway (relative amounts of LC3BI/II)", "setting": "[1]; Karpas-299, 100 ng/ml", "value": "activated"},
      {"measurement": "Ki-67 antigen (transition to G0 phase)", "setting": "[1]; Karpas-299, 100 ng/ml", "value": "loss of the Ki-67 antigen"},
      {"measurement": "mTORC3 signaling / kinase activity in cultured cells", "setting": "[1]", "value": "sensitive; also recorded: fully inhibited"},
      {"measurement": "Autophagy salvage pathway", "setting": "[4]; TEL2-expressing pre-B cells", "value": "did not induce the autophagy salvage pathway"},
      {"measurement": "Cell survival", "setting": "[4]; TEL2-expressing pre-B cells after complete loss of mTOR signaling", "value": "died rapidly"},
      {"measurement": "p-Akt Ser473, p-S6 Ser235/236, p-4E-BP1 Thr37/46 phosphorylation and KI-67 antigen", "setting": "[4]; TEL2-expressing pre-B cells, >100 ng/ml", "value": "loss of p-Akt^Ser473, p-S6^Ser235/236, p-4E-BP1^Thr37/46 phosphorylation and loss of the KI-67 antigen"}
    ]},
    {"molecule": "B1", "values": [
      {"measurement": "binding result", "setting": "[5]", "value": "no binding"},
      {"measurement": "binding result", "setting": "SIN1 (human cell lines)", "value": "no binding"},
      {"measurement": "binding result", "setting": "[6]", "value": "no binding"},
      {"measurement": "binding result", "setting": "[7]", "value": "no binding"},
      {"measurement": "binding result", "setting": "[8]", "value": "no binding"},
      {"measurement": "binding result", "setting": "[9]", "value": "no binding"}
    ]}
  ]
}
